# Test results: PubChem BioAssay AID2060615 (Molecular Pharmacology Branch, DTP, NCI, 2025)
# Test system: 496974-208-R-J2-PDC complex spheroids, growth % test/control
# Test: Anticancer human tumor 496974-208-R-J2-PDC patient-derived pancreatic carcinoma cell line growth inhibition [CLK]
# Conditions: for IC50: curve of first compound; for viability, T/C: stronger effect = lower value
# Procedure, shortened: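 Patient-derived tumor cells grown as complex spheroids with HUVEC endothelial cells and mesenchymal stem cells, treated with drug combinations. Concentrations descend in half-log steps from near clinical Cmax, or from 10 microM if Cmax unknown.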
# [1] = second compound 0.0316 µM, first compound 0.0316 µM
# [2] = second compound 0.0316 µM, first compound 0.1 µM
# [3] = second compound 0.0316 µM, first compound 0.316 µM
# [4] = second compound 0.0316 µM, first compound 1 µM
# [5] = second compound 0.1 µM, first compound 0.0316 µM
# [6] = second compound 0.1 µM, first compound 0.1 µM
# [7] = second compound 0.1 µM, first compound 0.316 µM
# [8] = second compound 0.1 µM, first compound 1 µM
# [9] = second compound 0.316 µM, first compound 0.0316 µM
# [10] = second compound 0.316 µM, first compound 0.1 µM
# [11] = second compound 0.316 µM, first compound 0.316 µM
# [12] = second compound 0.316 µM, first compound 1 µM
# [13] = second compound 1 µM, first compound 0.0316 µM
# [14] = second compound 1 µM, first compound 0.1 µM
# [15] = second compound 1 µM, first compound 0.316 µM
# [16] = second compound 1 µM, first compound 1 µM
# [17] = second compound 3.16 µM, first compound 0.0316 µM
# [18] = second compound 3.16 µM, first compound 0.1 µM
# [19] = second compound 3.16 µM, first compound 0.316 µM
# [20] = second compound 3.16 µM, first compound 1 µM
# [21] = second compound 10 µM, first compound 0.0316 µM
# [22] = second compound 10 µM, first compound 0.1 µM
# [23] = second compound 10 µM, first compound 0.316 µM
# [24] = second compound 10 µM, first compound 1 µM
# [25] = second compound 0.0316 µM, first compound 0.00316 µM
# [26] = second compound 0.0316 µM, first compound 0.01 µM
# [27] = second compound 0.1 µM, first compound 0.00316 µM
# [28] = second compound 0.1 µM, first compound 0.01 µM
# [29] = second compound 0.316 µM, first compound 0.00316 µM
# [30] = second compound 0.316 µM, first compound 0.01 µM
# [31] = second compound 1 µM, first compound 0.00316 µM
# [32] = second compound 1 µM, first compound 0.01 µM
# [33] = second compound 3.16 µM, first compound 0.00316 µM
# [34] = second compound 3.16 µM, first compound 0.01 µM
# [35] = second compound 10 µM, first compound 0.00316 µM
# [36] = second compound 10 µM, first compound 0.01 µM
# 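Also: spheroids exposed to the drugs for 7 days before readout.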
# 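For viability, T/C in this document: 100% = DMSO vehicle control wells.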
compound,measurement,setting,value
CC(Nc1ccc2c(c1)OCCn1cc(N3C(=O)OCC3C(F)F)nc1-2)C(N)=O (stereo unspecified) + CNC(=O)c1ccc(Nc2nc(OC3CCCC3)c3c(-c4ccc5nc(C)oc5c4)c[nH]c3n2)c(OC)c1,IC50,second compound 0.0316 µM,150 nM
same,IC50,second compound 0.1 µM,184 nM
same,IC50,second compound 0.316 µM,95.5 nM
same,IC50,second compound 1 µM,68.7 nM
same,IC50,second compound 3.16 µM,49.2 nM
same,IC50,second compound 10 µM,< 31.6 nM
same,"viability, T/C",[1],87.2%
same,"viability, T/C",[2],55.2%
same,"viability, T/C",[3],38.5%
same,"viability, T/C",[4],23.6%
same,"viability, T/C","second compound 0.0316 µM, first compound 3.16 µM",16.9%
same,"viability, T/C","second compound 0.0316 µM, first compound 10 µM",9.1%
same,"viability, T/C",[5],70.5%
same,"viability, T/C",[6],63.7%
same,"viability, T/C",[7],37.5%
same,"viability, T/C",[8],23.7%
same,"viability, T/C","second compound 0.1 µM, first compound 3.16 µM",15.5%
same,"viability, T/C","second compound 0.1 µM, first compound 10 µM",10.6%
same,"viability, T/C",[9],76.6%
same,"viability, T/C",[10],48.4%
same,"viability, T/C",[11],30.1%
same,"viability, T/C",[12],23.4%
same,"viability, T/C","second compound 0.316 µM, first compound 3.16 µM",15.5%
same,"viability, T/C","second compound 0.316 µM, first compound 10 µM",9.62%
same,"viability, T/C",[13],58.8%
same,"viability, T/C",[14],46.8%
same,"viability, T/C",[15],32.3%
same,"viability, T/C",[16],20.1%
same,"viability, T/C","second compound 1 µM, first compound 3.16 µM",18.4%
same,"viability, T/C","second compound 1 µM, first compound 10 µM",9.57%
same,"viability, T/C",[17],56.9%
same,"viability, T/C",[18],38.6%
same,"viability, T/C",[19],28.3%
same,"viability, T/C",[20],20%
same,"viability, T/C","second compound 3.16 µM, first compound 3.16 µM",17.6%
same,"viability, T/C","second compound 3.16 µM, first compound 10 µM",12.8%
same,"viability, T/C",[21],47.2%
same,"viability, T/C",[22],38.8%
same,"viability, T/C",[23],24.6%
same,"viability, T/C",[24],19%
same,"viability, T/C","second compound 10 µM, first compound 3.16 µM",15.6%
same,"viability, T/C","second compound 10 µM, first compound 10 µM",13.7%
CCN1CCN(Cc2ccc(Nc3ncc(F)c(-c4cc(F)c5nc(C)n(C(C)C)c5c4)n3)nc2)CC1 + CNC(=O)c1ccc(Nc2nc(OC3CCCC3)c3c(-c4ccc5nc(C)oc5c4)c[nH]c3n2)c(OC)c1,IC50,second compound 0.0316 µM,> 1000 nM
same,IC50,second compound 0.1 µM,> 1000 nM
same,IC50,second compound 0.316 µM,> 1000 nM
same,IC50,second compound 1 µM,> 1000 nM
same,IC50,second compound 3.16 µM,> 1000 nM
same,IC50,second compound 10 µM,> 1000 nM
same,"viability, T/C",[25],91.7%
same,"viability, T/C",[26],90.2%
same,"viability, T/C",[1],90.1%
same,"viability, T/C",[2],94.2%
same,"viability, T/C",[3],98%
same,"viability, T/C",[4],98.4%
same,"viability, T/C",[27],89.5%
same,"viability, T/C",[28],88.9%
same,"viability, T/C",[5],87.9%
same,"viability, T/C",[6],84.2%
same,"viability, T/C",[7],86.8%
same,"viability, T/C",[8],97.5%
same,"viability, T/C",[29],81.3%
same,"viability, T/C",[30],81.9%
same,"viability, T/C",[9],87.8%
same,"viability, T/C",[10],81.4%
same,"viability, T/C",[11],85.4%
same,"viability, T/C",[12],94.8%
same,"viability, T/C",[31],78.7%
same,"viability, T/C",[32],81.2%
same,"viability, T/C",[13],77.7%
same,"viability, T/C",[14],76.3%
same,"viability, T/C",[15],92.6%
same,"viability, T/C",[16],81.8%
same,"viability, T/C",[33],72.5%
same,"viability, T/C",[34],71.9%
same,"viability, T/C",[17],66.7%
same,"viability, T/C",[18],77.6%
same,"viability, T/C",[19],69.3%
same,"viability, T/C",[20],73.7%
same,"viability, T/C",[35],63%
same,"viability, T/C",[36],61.7%
same,"viability, T/C",[21],67.7%
same,"viability, T/C",[22],69.3%
same,"viability, T/C",[23],74.7%
same,"viability, T/C",[24],75%
COc1c(OCCCN2CCOCC2)ccc2c3n(c(=NC(=O)c4cnc(N)nc4)nc12)CCN3 + CNC(=O)c1ccc(Nc2nc(OC3CCCC3)c3c(-c4ccc5nc(C)oc5c4)c[nH]c3n2)c(OC)c1,IC50,second compound 0.0316 µM,17.4 nM
same,IC50,second compound 0.1 µM,16.2 nM
same,IC50,second compound 0.316 µM,11.1 nM
same,IC50,second compound 1 µM,7.96 nM
same,IC50,second compound 3.16 µM,4.74 nM
same,IC50,second compound 10 µM,3.25 nM
same,"viability, T/C",[25],88.2%
same,"viability, T/C",[26],68.6%
same,"viability, T/C",[1],29.4%
same,"viability, T/C",[2],14.5%
same,"viability, T/C",[3],9.14%
same,"viability, T/C",[4],4.1%
same,"viability, T/C",[27],76.9%
same,"viability, T/C",[28],64.2%
same,"viability, T/C",[5],30.2%
same,"viability, T/C",[6],16.1%
same,"viability, T/C",[7],12.5%
same,"viability, T/C",[8],7.78%
same,"viability, T/C",[29],70.3%
same,"viability, T/C",[30],53.4%
same,"viability, T/C",[9],24.8%
same,"viability, T/C",[10],15.1%
same,"viability, T/C",[11],11.2%
same,"viability, T/C",[12],5.48%
same,"viability, T/C",[31],61.2%
same,"viability, T/C",[32],47.7%
same,"viability, T/C",[13],27.5%
same,"viability, T/C",[14],14%
same,"viability, T/C",[15],12.3%
same,"viability, T/C",[16],5.46%
same,"viability, T/C",[33],54.4%
same,"viability, T/C",[34],42%
same,"viability, T/C",[17],26.1%
same,"viability, T/C",[18],16.1%
same,"viability, T/C",[19],8.87%
same,"viability, T/C",[20],6.58%
same,"viability, T/C",[35],50%
same,"viability, T/C",[36],37.7%
same,"viability, T/C",[21],21.9%
same,"viability, T/C",[22],12.4%
same,"viability, T/C",[23],9.58%
same,"viability, T/C",[24],3.59%
